Measured values reported in patent publication US11311513B2, “Methods, agents, and compositions for the treatment of acute myeloid leukemia” (UNIVERSITY OF CINCINNATI, priority 2017, dated 2022).

How the values were obtained:
KOCL-48 cells = test: MTS cell viability, KOCL-48; assay type: cell-based; details: 48 hrs, unit inferred
Protocol: (§1) In order to identify chemical compounds that may target TET1 signaling, the drug-sensitivity/gene expression database of a total of 20,602 chemical compounds in the NCI-60 collection of cancer cell samples was searched.
(§2) All cell lines were authenticated through STR profiling yearly.
(§3) These experiments were conducted as described previously (Jiang, X., et al., Blockade of miR-150 Maturation by MLL-Fusion/MYC/LIN-28 Is Required for MLL-Associated Leukemia, Cancer Cell 22:524-35 (2012); Li, Z., et al., miR-196b directly targets both HOXA9/MEIS1 oncogenes and FAS tumour suppressor in MLL-rearranged leukaemia, Nat Commun 2:688 (2012)) with ApoLive-Glo Multiplex Assay Kit, or CellTiter 96 AQueous Non-Radioactive Cell Proliferation Assay Kit (Promega, Madison, Wis.).

[1] = tested on: MONOMAC-6, THP-1, KOCL-48 and KASUMI-1 cells; test: MTS cell viability, four TET1-high AML cell lines together; assay type: cell-based
Protocol: as §1, §2, §3

[2] = biological target: STAT3 and the TET1 CpG island (Homo sapiens, UniProt P40763); test: Electrophoretic mobility shift assay (EMSA); assay type: biochemical
Sequence of STAT3 and the TET1 CpG island (P40763 whole entry, species assumed): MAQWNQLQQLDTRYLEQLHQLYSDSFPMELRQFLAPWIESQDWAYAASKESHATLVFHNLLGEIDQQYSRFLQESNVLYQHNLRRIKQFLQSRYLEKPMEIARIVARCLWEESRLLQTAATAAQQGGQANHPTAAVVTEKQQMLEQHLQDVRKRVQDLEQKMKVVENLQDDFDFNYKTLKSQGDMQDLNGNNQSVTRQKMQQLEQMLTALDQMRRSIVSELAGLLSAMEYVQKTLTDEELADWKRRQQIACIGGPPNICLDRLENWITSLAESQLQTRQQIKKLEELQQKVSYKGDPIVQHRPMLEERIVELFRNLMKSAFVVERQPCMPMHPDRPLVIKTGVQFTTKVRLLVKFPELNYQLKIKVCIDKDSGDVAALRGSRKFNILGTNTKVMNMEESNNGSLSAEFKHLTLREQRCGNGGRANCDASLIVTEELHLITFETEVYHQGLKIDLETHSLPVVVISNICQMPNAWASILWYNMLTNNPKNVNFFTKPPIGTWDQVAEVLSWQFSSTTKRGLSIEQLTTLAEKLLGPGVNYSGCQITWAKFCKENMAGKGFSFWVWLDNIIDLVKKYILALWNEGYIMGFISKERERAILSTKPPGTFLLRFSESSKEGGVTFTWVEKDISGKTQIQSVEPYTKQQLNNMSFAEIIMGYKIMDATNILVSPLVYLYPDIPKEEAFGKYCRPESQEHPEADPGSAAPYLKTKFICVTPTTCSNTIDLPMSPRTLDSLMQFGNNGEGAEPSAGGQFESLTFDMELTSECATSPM
Protocol: EMSA was conducted with EMSA Assay Kit (Signosis, Santa Clara, Calif.) according to the manufacturer's protocol with minor modifications. Briefly, purified STAT3 protein was incubated with Biotin-labeled TET1-CPG probe (hot probe) and/or cold probe, and then protein/DNA complexes were separated on a non-denaturing polyacrylamide gel. Bands were detected using Streptavidin-HRP conjugate and a chemiluminescent substrate. The sequences of the TET1-CPG probe are: Forward: 5′ Biotin-[…]-3′ (SEQ ID NO: 11); Reverse: 5′ Biotin-[…]-3′ (SEQ ID NO: 12).

[3] = tested on: TET1-high AML (including MONOMAC-6, THP-1, and KASUMI-1) cells; test: MTS viability of AML cell lines versus JAK/STAT inhibitors; assay type: cell-based; details: MTS 48 hrs; up to 500 nM
Protocol: FIG. 4. […] (a) Structures of NSC-370284 and UC-514321. […] Cells were treated with drugs at indicated doses. Cell viability was detected by MTS 48 hrs post-treatment. Error bar indicates SD of triplicate experiments. […] Secondary BMT recipient mice were transplanted with primary leukemic BM cells with MLL-AF9 (f) or AML-ETO9a (g). […] Kaplan-Meier curves are shown. The P values were determined by log-rank test. […] Secondary BMT recipient mice were transplanted with primary leukemic BM cells with MLL-AF10 or FLT3-ITD/NPM1^mut. […] Kaplan-Meier curves are shown. The P values were determined by log-rank test. (j) Wright-Giemsa staining of mouse PB and BM, or H&E staining of mouse spleen and liver of MLL-AF9 AML secondary BMT recipients with or without drug treatment.
as §3

in vivo = test: in vivo; design: species or system C57BL/6 mice; details: C57BL/6, mouse
Source text: FIG. 17. […] Error bar indicates SD of triplicate experiments.

SMILES | IC50 (KOCL-48 cells) [nM] | inhibition of cell viability of all four TET1-high AML cell lines ([1]; 0, 50, 200, 500 nM, MTS 48 hours, among top 20 candidates) | cell viability at low dose, short term ([1]; 25 nM, 24 hours, MONOMAC-6, THP-1 and KOCL-48 cells) | IC50 ([1]; average over the cell lines, unit inferred) [nM] | association between STAT3 and the TET1 CpG island [2] | effect in repressing viability of TET1-high AML cells compared with NSC-370284 and other JAK/STAT inhibitors [3] | half-life (in vivo) [h] | AUC(0-inf) (in vivo; ip, 15 mg/kg) [ng·h/mL] | Clearance (in vivo; ip, 15 mg/kg) [mL/min/kg] | MRT (in vivo; ip, 15 mg/kg) [h] | Volume of Distribution (in vivo; ip, 15 mg/kg) [L/kg] | half-life (in vivo; ip, 15 mg/kg) [h]
COc1cc(C(c2cc3c(cc2O)OCO3)N2CCCC2)cc(OC)c1OC (stereo not drawn) [NSC-370284, 6-(1-Pyrrolidinyl(3,4,5-trimethoxyphenyl)methyl)-1,3-benzodioxol-5-ol] | 38.2 | most significant effects in inhibiting cell viability | very minor decrease | 9.75 | almost be completely blocked |  |  |  |  |  |  | 
CC(C)(C)c1cc(C(c2cc3c(cc2O)OCO3)N2CCOCC2)cc(C(C)(C)C)c1O (stereo not drawn) [UC-514321, 6-{[4-Hydroxy-3,5-bis(2-methyl-2-propanyl)phenyl](4-morpholinyl)methyl}-1,3-benzodioxol-5-ol] |  |  |  |  |  | enhanced effect | 11 | 29400 ± 2750 | 22.7 ± 1.3 | 16.1 ± 1.79 | 21.66 ± 1.74 | 11 ± 2.51
